BindingDB's records for doi:10.1021/acs.jmedchem.8b00164 (Athenex, 2018)

Assays:
[1] = Inhibition of human c-SRC expressed in mouse NIH/3T3 cells assessed as inhibition of cell growth in presence of 1.5% FCS by BrdU incorporation assay
[2] = Inhibition of human c-SRC expressed in mouse NIH/3T3 cells assessed as inhibition of cell growth in presence of 0.5% FCS

O=C(Cc1ccc(-c2ccccc2)cn1)NCc1cccc(F)c1
IC50 [1]: 269 nM

O=C(Cc1ccc(-c2ccc(OCCN3CCOCC3)cc2)cn1)NCc1cccc(F)c1
IC50 [1]: 118 nM

O=C(Cc1ccc(-c2ccccc2)cc1)NCc1cccc(F)c1
IC50 [1]: 349 nM

O=C(Cc1ccc(-c2ccc(OCCN3CCOCC3)cc2)cn1)NCc1ccccc1 [N-benzyl-2-(5-(4-(2-morpholinoethoxy)phenyl)pyridin-2-yl)acetamide]
IC50 [2]: 6.5 nM | IC50 [1]: 13 nM
